Read-outs that look alike come from different tables or passages of the source.
What was measured:
[1] = tested on: DOK; assay: Growth inhibition assay (SRB); assay type: cell-based
Experimental: (§1) Cell lines are sub-cultured weekly and routinely screened for mycoplasma contamination.
(§2) The cells are fixed with 100 μl of pre-chilled 10% trichloroacetic acid after removal of the medium. The plates are then chilled at 4° C. for 1 h. Following this, the plates are washed twice with water and stained with 50 μl of 0.4% SRB in 1% acetic acid for 10 min at room temperature. The unbound dye is removed and the plates are washed in 1% acetic acid to further remove unbound dye. […] Growth inhibition curves are plotted and IC50 values determined.

[2] = tested on: HN3 ACC primary culture; assay: cells; assay type: cell-based, human
[3] = tested on: FaDu; assay: Growth inhibition assay (SRB); assay type: cell-based, human
Experimental: as §1, §2

[4] = tested on: Cal27; assay: Growth inhibition assay (SRB); assay type: cell-based, human
Experimental: as §1, §2

[5] = tested on: HN1 ACC primary culture; assay: cells; assay type: cell-based, human
[6] = tested on: HN5 ACC primary culture; assay: Growth inhibition assay (SRB); assay type: cell-based, human

| SMILES | IC50 ([1]; DOK, 5-7 days, read-out: IC50) | IC50 ([2]; read-out: IC50) | IC50 ([5]; read-out: IC50) | IC50 ([5]; Homo sapiens) | further results |
| --- | --- | --- | --- | --- | --- |
| COc1cccc2c1C(=O)c1c(O)c3c(c(O)c1C2=O)C[C@@](O)(C(=O)CO)C[C@@H]3O[C@H]1C[C@H](N)[C@H](O)[C@H](C)O1 [Adr] | 20 nM | 60 nM | – | – | – |
| COc1ccc(/C=C\c2cc(OC)c(OC)c(OC)c2)cc1O [Ca4, combrestatin] | – | – | > 20 nM | – | IC50 ([1]; read-out: IC50): 3.32 nM; IC50 [3]: 3.69 nM; IC50 [4]: 1.46 nM; IC50 ([6]; read-out: IC50): 3.06 nM |
| N.N.[Cl][Pt][Cl] [Cisp, cisplatin] | 3700 nM | 2800 nM | 5000 nM | – | – |
| O=c1[nH]cc(F)c(=O)[nH]1 [Compound 5FU, 5 fluorouracil] | 22000 nM | – | – | 4800 nM | – |
| Nc1ccn([C@@H]2O[C@H](CO)[C@@H](O)C2(F)F)c(=O)n1 [Gem, gemcitabine] | 7.06 nM | – | – | 1.95 nM | – |
| CO[C@@]12[C@H](COC(N)=O)C3=C(C(=O)C(C)=C(N)C3=O)N1C[C@@H]1N[C@@H]12 [MMC, mitomycin C] | 60 nM | 1160 nM | 1750 nM | – | – |
| N[C@@H](Cc1ccc(N(CCCl)CCCl)cc1)C(=O)O [Mel, melphalan] | 111000 nM | – | – | 66600 nM | IC50 ([2]; Homo sapiens): 27500 nM; IC50 ([6]; Homo sapiens): 7300 nM |
| CC1=C(N2CC2)C(=O)C(CO)=C(N2CC2)C1=O [RH1] | – | 0.86 nM | 7.11 nM | – | IC50 ([1]; read-out: IC50): 0.33 nM; IC50 [3]: 1.34 nM; IC50 [4]: 0.11 nM; IC50 ([6]; read-out: IC50): 0.87 nM |
| CC(=O)O[C@H]1C(=O)[C@@]2(C)[C@H]([C@H](OC(=O)c3ccccc3)[C@]3(O)C[C@H](OC(=O)[C@H](O)[C@@H](NC(=O)c4ccccc4)c4ccccc4)C(C)=C1C3(C)C)[C@]1(OC(C)=O)CO[C@@H]1C[C@@H]2O [Taxol, 5(beta),20-Epoxy-1,2(alpha),4,7(beta), 10(beta), b 13(alpha)-hexahydroxytax-11-en-9-one4,10-diacetate 2-benzoate 13-ester with (2R ,3S )-N-benzoyl-3-phenylisoserine] | 2.7 ng/mL | – | – | 6.1 ng/mL | IC50 ([2]; Homo sapiens): 6.1 ng/mL |
| CC[C@]1(O)C[C@@H]2CN(CCc3c([nH]c4ccccc34)[C@@](C(=O)OC)(c3cc4c(cc3OC)N(C)[C@H]3[C@@](O)(C(=O)OC)[C@H](OC(C)=O)[C@]5(CC)C=CCN6CC[C@]43[C@@H]65)C2)C1 [VBL, vinblastin] | – | – | – | – | IC50 ([1]; DOK, 5-7 days): 0.3 ng/mL; IC50 [5]: 1.3 ng/mL; IC50 [2]: 0.9 ng/mL |

From patent US20070116784A1, “Imatinib combinations for head and neck cancers” (priority 2003, published 2007)
